The values below come from PMC9897792, “Discovery of novel 2-(4-(benzyloxy)-5-(hydroxyl) phenyl) benzothiazole derivatives as multifunctional MAO-B inhibitors for the treatment of Parkinson’s disease” (Journal of Enzyme Inhibition and Medicinal Chemistry, 2023).

One data set deals with T1, MAO-A (Homo sapiens, UniProt P21397).
T1 sequence (P21397 1-527): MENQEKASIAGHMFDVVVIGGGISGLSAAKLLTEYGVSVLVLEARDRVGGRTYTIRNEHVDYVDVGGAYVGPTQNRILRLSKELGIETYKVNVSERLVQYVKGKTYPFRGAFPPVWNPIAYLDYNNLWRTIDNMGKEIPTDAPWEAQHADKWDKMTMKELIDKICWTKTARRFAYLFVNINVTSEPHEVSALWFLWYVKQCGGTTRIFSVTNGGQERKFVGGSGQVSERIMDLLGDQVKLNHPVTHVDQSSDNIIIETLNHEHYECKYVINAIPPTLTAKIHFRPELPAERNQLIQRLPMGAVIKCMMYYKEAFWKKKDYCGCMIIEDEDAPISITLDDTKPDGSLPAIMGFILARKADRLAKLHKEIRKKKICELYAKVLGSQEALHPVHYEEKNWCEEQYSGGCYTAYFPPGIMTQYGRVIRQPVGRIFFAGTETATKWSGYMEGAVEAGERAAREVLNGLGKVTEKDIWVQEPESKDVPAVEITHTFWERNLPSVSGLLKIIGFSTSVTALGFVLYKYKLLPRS
The data set is described as follows: MAO-A inhibition, kynuramine method. Format: biochemical. Conditions: at the concentration of 10.0 μM; n.a. = no active, percent inhibition <5.0%; read-out: %Inhibition MAO-A.

The target of data set [1] is T2, MAO-B (Homo sapiens, UniProt P27338).
T2 sequence (P27338 1-520): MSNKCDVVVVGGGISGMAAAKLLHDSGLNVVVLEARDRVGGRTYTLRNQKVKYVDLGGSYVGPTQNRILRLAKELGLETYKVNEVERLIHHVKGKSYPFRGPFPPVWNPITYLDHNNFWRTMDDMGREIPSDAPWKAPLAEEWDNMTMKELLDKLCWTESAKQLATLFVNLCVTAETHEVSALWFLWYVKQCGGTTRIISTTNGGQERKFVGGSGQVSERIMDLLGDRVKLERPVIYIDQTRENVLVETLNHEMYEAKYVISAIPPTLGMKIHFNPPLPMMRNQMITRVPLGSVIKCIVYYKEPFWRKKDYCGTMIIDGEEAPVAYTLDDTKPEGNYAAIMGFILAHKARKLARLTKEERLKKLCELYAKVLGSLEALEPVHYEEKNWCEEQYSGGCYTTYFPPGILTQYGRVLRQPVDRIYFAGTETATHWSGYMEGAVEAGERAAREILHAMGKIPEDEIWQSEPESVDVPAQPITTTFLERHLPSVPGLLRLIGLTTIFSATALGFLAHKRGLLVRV
Description: MAO-B inhibition, kynuramine method. Format: biochemical.

The nature of data set [2]: Oxygen radical absorbance capacity assay with fluorescein (ORAC-FL). Conditions: Trolox as standard. How it is done:
Oxygen radical absorbance capacity assay which used fluorescein (ORAC-FL) was performed to measure the antioxidant activities of 2-(4-(benzyloxy)-5-(hydroxyl) phenyl) benzothiazole derivatives. […] It reflected that introduction of alkyl substituents on benzyloxy ring was more beneficial for the improvement of in vitro antioxidant activity. However, the position and number of substituents seem to have little influence on the antioxidative activities.
Test compounds solution (20 µL, 10 µM) and fluorescein solution (120 µL, 250 nM) were added to a black 96-wells plate in order. The mixture was incubated for 15 min at 37 °C. Then, AAPH solution (60 µL, 40 mM) was added through an automatic sampler. The fluorescence was recorded with excitation and emission wavelengths at 485 and 535 nm on the multifunctional enzyme marker (Thermo Scientific), and the area under the curve (AUC) was calculated automatically. Trolox was used as a reference, and the antioxidant activities of the compounds were expressed as Trolox equivalent. The test compound solution was replaced with PBS (20 µL) in blank well. The antioxidant activities of the test compounds were calculated by the formula: [(AUCsample − AUCblank)/(AUCtrolox − AUCblank)] × [(Trolox concentration/test sample concentration)].

In data set [3] the target is T2, MAO-B. The data set is described as follows: Reversibility study of MAO-B inhibition by dialysis method. Format: biochemical.
Description: The mixture was incubated at 37 °C for 30 min and transferred to dialysis bag (MWCO: 10 000, flattening width: 24 mm, length: 8–10 cm). Then, this dialysis bag was placed in 200 ml PBS for 24 h, and the outer PBS was replaced with fresh at 3 and 7 h, respectively. As for the undialysis group, the mixture was placed at 4 °C for 24 h. After dialysis, the mixtures (40 µL) in the dialysis bag were taken out to measure the catalytic activity, and the test method was similar with the inhibition experiment of MAOs. […] The test compound solution was replaced with PBS buffer at the same volume in the blank group.
Data set [4] is described as follows: Metal-chelating study by UV spectra. Format: physicochemical. Conditions: 75.0 μM in methanol; shifted from 335.5 nm. How it is done: Particularly, after the addition of FeSO4, maximum increase in absorption was detected. Besides, after the addition of CuCl2, maximum absorption peak shifted from 335.5 to 382.0 nm.
UV spectrum method was conducted to clarify the metal chelating ability of 2-(4-(benzyloxy)-5-(hydroxyl) phenyl) benzothiazole derivatives. Test compound solution (1.0 ml, 75 µM in methanol) and metal ion solution (1.0 ml, 75 µM in methanol) were added to a vial. The vial was placed at room temperature for 2 h. Then, the mixture was removed from the vial to a quartz cell. After transfer, the absorbance of the mixture at 200–800 nm was measured by using UV spectrophotometer (Shimadzu UV-1900i).

A short description of data set [5]: Parallel artificial membrane permeation assay for blood-brain barrier (PAMPA-BBB). Format: in vitro ADME. On the technique in general: PAMPA measures passive passage across an artificial lipid membrane.
Description: Porcine brain lipid solution (4 µL, 20 mg/mL in n-dodecane) was added dropwise to a filter membrane. Then the membrane was placed still at room temperature for 5 min to form an artificial biomembrane. When this bionics membrane was formed, test compound solution (350 µL, 100 µg/mL) was added to the donor well which was over the artificial biomembrane, and the mixture of PBS and Ethanol (200 µL, 70/30, v/v) was added to receptor well which is under the bionics membrane. Then, the “sandwich” was incubated at 25 °C for 18 h. After incubation, 150 µL solution in both donor well and receptor well were taken out and added to a 96-well quartz cuvette, and the absorbance of the mixture at 200–800 nm was measured. The Pe value was calculated according to the formula depicted by the literature.
In data set [6] the test system is TNF-α production in LPS-activated BV-2 microglia cells. The data set is described as follows: LPS-induced TNF-α production in BV-2 cells (ELISA). Format: cell-based. The note with it: Mus musculus, LPS 1.0 µg/mL, read-out: inhibition rate of LPS-induced TNF-α production. How it is done: ELISA method was carried out to detect the inhibitory effects of 3h on LPS-induced TNF-α production. As shown in Figure 8(B), the level of TNF-α expression was dramatically raised when BV-2 cells were exposed to LPS (1.0 µg/mL).
ELISA and Griess reaction methods were performed to detect the inhibitory effect of 3h on the release of TNF-α and NO in LPS-stimulated BV-2 cells[46]^,[47]. BV-2 cells in the logarithmic phase were seeded into 96-well cell culture plate, and these cells were incubated at 37 °C for 24 h at the atmosphere of 5% CO2. After incubation, the culture solution was replaced by fresh one (90 µL without serum), and test compound solution (10 µL) was added. After addition, the plate was incubated for 30 min, then LPS (10 µL, 1.0 µg/ml in PBS) was added to each well, and the mixture would be incubated for another 24 h at 37 °C. After the final incubation, the supernatants were taken out to measure the level of TNF-α and NO according to the procedures depicted on the kits (kits were purchased from Nanjing Jiancheng Bioengineering Institute).
A general note: ELISA stands for enzyme-linked immunosorbent assay.

Several values for one entry are separate records, joined by “and”; a condition that tells them apart may be missing. Equal entries are not always repeated.

Regarding `Oc1cc(OCc2ccc(F)cc2)ccc1-c1nc2ccccc2s1` [3h, 2-(Benzo[d]thiazol-2-yl)-5-((4-fluorobenzyl)oxy)phenol], the inhibition – broadly, the share of the control response that was lost under treatment – at 10 µM worked out at 39.7 ± 0.54% at MAO-A and 52.5% in data set [6] (10.0 µM). For the same compound, on MAO-B [1], 0.062 ± 0.005 µM corresponded to half-maximal inhibition (IC50). Besides, in data set [2], the ORAC is 2.27 Trolox equivalents and 2.27 ± 0.08 Trolox equivalents. The MAO-B inhibitory mode entry at MAO-B [3] (classified by MAO-B catalytic activity in dialysis group) is listed as “reversible (reversible inhibition: MAO-B catalytic activity ≥ 80%)”. In addition, at MAO-B [3] (test compound 4 × IC50, 4 °C for 24 h without dialysis), the “MAO-B catalytic activity, undialysis group” value is on record as 27.6%. Besides, the “MAO-B catalytic activity, dialysis group” value on MAO-B [3] (test compound 4 × IC50, dialysis 24 h) is listed as 80.9%. Also, in data set [4], the “maximum absorption peak after the addition of CuCl2” value was 382.0 nm. The “Prediction of penetration into CNS” value in data set [5] is on record as “CNS+ (High BBB permeation predicted (CNS +) Pe> 3.44)”. In data set [5] (PBS/EtOH (70:30), mean ± SD of three independent experiments), this compound had a Pe of 40.3 nm/s. Further, in data set [5] (PBS/EtOH (70:30), mean ± SD of three independent experiments, read-out: Pe), the Papp at 18 h, 100 µg/mL amounted to 40.3 ± 1.4 nm/s. For the same compound, the inhibition at 0.5 µM in data set [6] (0.5 µM) came to 7.8%. The inhibition at […] in data set [6] (2.5 µM) came to 25.7%.
